Laboratory results from a melting point compilation (Tetko et al.).

| Compound | melting point [°C] |
| --- | --- |
| Oc1c(Cl)c(Cl)c(O)c(Cl)c1Cl | 239 |
| CC(C)(C)OC(=O)Nc1cccs1 | 151 to 152 |
| Cn1nc(-c2cccs2)cc1C(=O)Cl | 113 to 114 |
| CC1(C)CC(=O)c2cc(-c3ccccc3)n(-c3cccc(C(F)(F)F)c3)c2C1 | 145 to 147 |
| FC(F)(Cl)C(F)(Cl)Cl | -35 |
| O=C(O)c1c(F)c(F)cc(F)c1F | 151 |
| O=Cc1cn(S(=O)(=O)c2ccccc2)c2ccccc12 | 156 to 157 |
| CC(C)(C)OC(=O)N[C@@H](Cc1ccccc1F)C(=O)O | 92 to 96 |
| N=C1NC(=O)C(=NNc2ccccc2[N+](=O)[O-])S1 | 274 |
| O=C(O)Cc1ccc(F)cc1F | 118 |
| CCCCCCCCCCCCCCCCCC1CCCCC1 | 38 |
| COC(=O)C1=C(C)NC(C)=C([N+](=O)[O-])C1c1ccccc1C(F)(F)F (stereo unspecified) | 166 to 172 |
| CNc1ccncc1 | 126 |
| COc1cc(C2c3cc4c(cc3C(OC3OC5COC(c6cccs6)OC5C(O)C3O)C3COC(=O)C23)OCO4)cc(OC)c1O (stereo unspecified) | 244 |
| C#CC(C)(C)Cl | -61 |
| Nc1nc(F)nc2c1ncn2C1OC(CO)C(O)C1O (stereo unspecified) | 260 |
| N#CC1(C#N)C2COC(C3=C2CCCC3)C1(C#N)C#N (stereo unspecified) | 173 |
| CC12CCC(C(OC(=O)c3ccc([N+](=O)[O-])cc3)=CC1=O)C2(C)C (stereo unspecified) | 121 |
| COc1ccc2c(c1)CCC(C(=O)O)C2C (stereo unspecified) | 133 |
| O=C(Cc1ccccc1)C(Cc1ccccc1)=NNc1ccc([N+](=O)[O-])cc1 | 174 |
| Nc1ccccc1C(=O)OCC=Cc1ccccc1 | 61 |
| CN(C)c1ccc(C(/C=C2\C=Cc3ccccc3N2)c2ccccc2)cc1 (stereo unspecified) | 125 |
| CCOC(=O)C1=C(N)CCC1 | 57 to 60 |
| O=S(=O)(O)CCNC1CCCCC1 | 320 |
| CC1=C(c2ccccc2)c2ccccc2C1 | 58 to 58.5 |
| O=[N+]([O-])c1ccc(O)c([N+](=O)[O-])c1 | 116 |

| Compound | melting point [°C] |
| --- | --- |
| NNc1ccc(Cl)nn1 | 137 |
| COc1ccc(C=Nn2c(C)cc(C)c(C#N)c2=O)cc1 | 249 to 250 |
| Oc1noc2cc(Cl)ccc12 | 215 to 217 |
| CCOC(=O)c1c(NC(=O)Nc2cccc(Cl)c2)sc2c1CCCC2 | 164 to 165 |
| CC(=O)Nc1cc([N+](=O)[O-])c(/C=C/c2ccccc2)c([N+](=O)[O-])c1/C=C/c1ccccc1 | 171 |
| CCOC(=O)C1CCN(c2ccc(C#N)cc2)CC1 | 67 to 68 |
| Clc1n[nH]c2ccccc12 | 149 |
| O=[N+]([O-])c1cccc(C=Cc2ccccc2)c1 | 102 |
| O=Cc1cccc(NS(=O)(=O)c2ccccc2)c1 | 104 to 108 |
| Cn1c(/C(C#N)=N/Nc2c(Br)cc(Br)cc2Br)nc2ccccc21 | 180 |
| CC(C)(C)C(O)C(Cc1ccc(Cl)cc1Cl)n1cncn1 (stereo unspecified) | 148 |
| CCOP(=S)(S)OCC | -10 |
| CCOC(=O)c1c2n(n(-c3ccc([N+](=O)[O-])cc3)c1=N)C(=O)CS2 | 145 to 148 |
| Cc1cc(C(=O)Nc2ccc(Cl)cc2)no1 | 155 to 157 |
| O=CC(Cl)C=O | 140 to 145 |
| Nc1cccc(S(=O)(=O)N2CCOCC2)c1 | 132 to 135 |
| C[C@H]([C@@H](O)c1ccccc1)N1CCCC1 | 45 |
| C1=CC2OC1c1ccccc12 | 53 to 58 |
| C#CC1(O)CCC2(C)C(C1)CC1(OCCO1)C1C3CCC(=O)C3(C)CCC12 (stereo unspecified) | 308 |
| O=C=Nc1ccc(Cl)cc1 | 30 |
| Cc1nc2ccc(S(=O)(=O)Cl)cc2s1 | 98 to 101 |
| CN(C)Cc1c[nH]c2ccccc12 | 138 |
| COc1ccc(-c2nnc3n2NC(c2ccco2)S3)cc1 (stereo unspecified) | 161 |
| Nc1ccc2scnc2c1 | 55 to 59 |
| C[Si]1(C)O[Si](C)(C)O[Si](C)(C)O[Si](C)(C)O[Si](C)(C)O[Si](C)(C)O1 | -3 |
| CCCCCC(O)C=CC1C(O)CC(=O)C1CC=CCCCC(=O)O (stereo unspecified) | 67 |

| Compound | melting point [°C] |
| --- | --- |
| Cc1c(N/N=C2/C(=O)N(c3ccccc3)N=C2C(F)(F)F)c(=O)n(-c2ccccc2)n1C | 185 |
| COC(=O)c1ccc2c(c1)OCO2 | 53 |
| COC(=O)C12ON1c1ccccc1C2=O (stereo unspecified) | 221 |
| C=C(C)C(=O)OCCOC(=O)c1cc([N+](=O)[O-])cc([N+](=O)[O-])c1 | 71 |
| COc1ccc(P(c2ccc(OC)cc2)c2ccc(OC)cc2)cc1 | 131 to 134 |
| O=[N+]([O-])c1ccc(O)cc1O | 122 |
| O=C(O)c1c(Cl)c(Cl)c(Cl)c(Cl)c1C(=O)O | 98 |
| Nc1ccc(-n2cncn2)cc1 | 142 to 144 |
| Cc1cc2c(C#N)c3n(C)c4ccccc4n3c(=O)c2c(C)n1 | 321 |
| O=S(=O)(Cl)c1ccc(S(=O)(=O)N2CCCC2)cc1 | 133 to 134 |
| CC(C)(C)OOC(C)(C)CCC(C)(C)OOC(C)(C)C | 8 |
| Cc1nnc(SCc2ccccc2)n1N=Cc1ccccc1Cl | 121 to 123 |
| c1ccc2cc3c4ccccc4c4ccccc4c3cc2c1 | 206 |
| Cc1cc(=O)[nH]c2c(/N=N/c3ccc(Cl)cc3)c(N)nn12 | 307 to 308 |
| CCCCc1cccc2ccccc12 | -19.8 |
| CC(C)(CCl)C(=O)O | 41.5 |
| C#CCCCCCCC(=O)O | 19 |
| O=C(CBr)c1ccc(-c2ccccc2)s1 | 115 to 117 |
| CC1NC(C(=O)O)Cc2c1[nH]c1ccccc21 (stereo unspecified) | 243 to 245 |
| O=C1CSC(=S)N1c1ccccc1 | 194 |
| CC1(N)CCC(C(C)(C)N)CC1 (stereo unspecified) | -45 |
| CCc1ccc(O)c(O)c1 | 39 |
| COC1(OC)CC[C@]2(C)[C@H]3CC[C@]4(C)CCC[C@@]4(O)[C@@H]3CC[C@@]2(C)C1 | 146 to 147 |
| N[C@@H](Cc1ccc(O)c([N+](=O)[O-])c1)C(=O)O | 233 to 235 |
| COc1ccc(C(N)=O)cc1N | 158 |
| Cc1cc(C(=O)CCl)c(C)n1-c1ccccc1 | 93 to 94 |

| Compound | melting point [°C] |
| --- | --- |
| COC(=O)NC1C(O)OC(CO)C(O)C1O (stereo unspecified) | 196 |
| N=C(N)N(c1ccccc1)c1ccccc1 | 150 |
| CC(=O)OC(CCC(=O)c1ccccc1)c1ccccc1 (stereo unspecified) | 73 |
| Cc1ccnc(Cl)n1 | 47 |
| Nc1ccc(C=C/C(=N/O)c2ccccc2)cc1 | 138 to 139 |
| NC(=S)Nc1cccc(Br)c1 | 150 to 151 |
| CC(C)(C)c1ccc(C2CCC3(CC2)Cc2ccc(C(=O)n4cc(CCCC(=O)O)c5ccccc54)cc2C3)cc1 (stereo unspecified) | 120 to 150 |
| O=C(C=Cc1ccccc1)NCCO | 101 |
| O=C=Nc1ccc(Br)cc1 | 41 |
| CCN(CCO)CCn1c(Cc2ccccc2)nc2c1c(=O)n(C)c(=O)n2C | 80 |
| CN(C)Cc1c(O)c(Br)c(C(=O)O)c(Br)c1O | 208 |
| Cc1cccc(OCC(O)CNC(C)C)c1 (stereo unspecified) | 76 |
| O=C(O)Cc1ccccc1I | 116 |
| O=COc1ccc([N+](=O)[O-])cc1 | 72 |
| O=C1C(C(Br)C2(Br)C(=O)N(c3ccccc3)N=C2c2ccc([N+](=O)[O-])cc2)C(c2ccc([N+](=O)[O-])cc2)=NN1c1ccccc1 (stereo unspecified) | 308 to 310 |
| N#CCS(=O)(=O)c1cccs1 | 84 |
| O=C(O)Cc1ccc(CC(=O)O)cc1 | 254 |
| CC(C)(Oc1ccc(Cl)cc1)C(N)=O | 126 to 129 |
| O=C1C=C(Cl)C(=O)O1 | 33 |
| CCCc1ccccn1 | 2 |
| CC1Cc2ccccc2N1 (stereo unspecified) | -51 |
| CC12CCC3C(CCC4CC(C#N)CCC43C)C1CCC2=O (stereo unspecified) | 164 |
| Cc1ncnc2[nH]cnc12 | 235 to 240 |
| O=C(O)c1cc(O)c2cccc(O)c2n1 | 297 to 298 |
| CC(C)(C)[C@H]1CC[C@H](C(=O)O)CC1 | 170 to 175 |
| COC(=O)c1cc(C)[nH]c1C | 120 |

| Compound | melting point [°C] |
| --- | --- |
| OCC1(CO)CC=CCC1 | 88.5 |
| O=C(O)/C=C/c1ccc(I)o1 | 145 |
| CN(Cc1cc(Br)cc(Br)c1N)C1CCCCC1 | 238 |
| CC(C)(C)C(=O)C=Cc1ccccc1 | 43 |
| O=[N+]([O-])C=Cc1cc(Cl)ccc1O | 148 to 154 |
| O=C(C=Cc1ccc(C=CC(=O)Nc2ccccc2)cc1)Nc1ccccc1 | 292 to 294 |
| CC1=NN(c2ccccc2)C(=O)/C1=N\Nc1ccc(C(=O)O)cc1 | 313 |
| COc1c(C)c2c(c(O)c1CC=C(C)CCC(=O)OCCN1CCOCC1)C(=O)OC2 | 93.5 |
| ClC(Cl)=C(c1ccc(Cl)cc1)c1ccc(Cl)cc1 | 89 |
| C=C(C)CCCCCCCC | -51 |
| CCN(CC)c1ccc([N+](=O)[O-])cc1 | 77.5 |
| CC1CCC(C(C)C)C(OC(=O)c2ccc(C(=O)OC3CC(C)CCC3C(C)C)cc2)C1 (stereo unspecified) | 75 |
| Cc1cc(Cl)ccc1Cl | 5 |
| NC(=O)CS(=O)C(c1ccccc1)c1ccccc1 (stereo unspecified) | 164 |
| C[C@]1(O)C#CCCCCC#C[C@](C)(O)CC1 | 144 |
| O=C(CCc1ccc(O)cc1)c1c(O)cc(O)cc1OC1OC(CO)C(O)C(O)C1O (stereo unspecified) | 110 |
| CCC(C)/N=C(\C)c1c(O)c2ccccc2n(-c2ccccc2)c1=O (stereo unspecified) | 193 to 194 |
| Cc1csc2sc(C=O)c(C)c12 | 147 to 149 |
| COc1cc(Br)c(CO)cc1OC | 95 to 100 |
| CCn1cc(C(=O)O)c(=O)c2cc(F)c(N3CCNCC3)nc21 | 222 |
| COc1c(Cl)c(Cl)c(Cl)c(Cl)c1Cl | 108 |
| C=C1CCOC2(C(O)C(C)(O)CO)NC(=O)C1(O)NC2=O (stereo unspecified) | 188 |
